Test results taken from article PMC10108392, “Rimonabant-Based Compounds Bearing Hydrophobic Amino Acid Derivatives as Cannabinoid Receptor Subtype 1 Ligands” (ACS Medicinal Chemistry Letters, 2023).
Entries after “also recorded” stand apart in the source; their conditions may differ.

Legend:
CB1R [1] = target: T1, CB1R (Rattus norvegicus, UniProt P20272); test: [3H]WIN55,212-2 radioligand competition binding assay in rat brain membrane homogenate; conditions: for Ki: read-out: Ki [3H]WIN55,212-2 binding, 5 nM [3H]WIN55,212-2, ± SEM, n.b. = no binding of ligands was observed
T1 construct: Crude membrane fractions were prepared from the brain; from tissue; host or cells: Wistar rat whole brain, crude membrane fraction
Protocol: (§1) Our novel chemical compounds were tested in vitro for their binding ability, efficacy, and potency on CB1R in rat brain membrane homogenate (Table 2 and SI, Figure S1). CB1Rs are the most abundant G-protein coupled receptors in the rodent and mammalian brain; therefore, this is an appropriate model to characterize our ligands in a more physiological system.
(§2) In Vitro Biological Assays
(§3) Preparation of Brain Membrane Homogenates
(§4) Wistar rats were locally bred and handled according to the EU Directive 2010/63/EU and to the Regulations on Animal Protection (40/2013. (II. 14.) Korm. r.) of Hungary. Crude membrane fractions were prepared from the brain. Brains were quickly removed from the euthanized rats and directly put in an ice-cold 50 mM Tris-HCl buffer (pH 7.4). The collected tissue was then homogenized in 30 volumes (v/w) of an ice-cold buffer with a Braun Teflon-glass homogenizer at the highest rpm. The homogenate was centrifuged at 20,000 × g for 25 min, and the resulting pellet was suspended in the same volume of a cold buffer followed by incubation at 37 °C for 30 min to remove endogenous ligands. Centrifugation was then repeated. The final pellets were taken up in five volumes of a 50 mM Tris-HCl (pH 7.4) buffer containing 0.32 M sucrose and stored at -80 °C. Prior to the experiment, aliquots were thawed and centrifuged at 20,000 ×g for 25 min and then they were resuspended in 50 mM Tris-HCl (pH 7.4), homogenized with a Douncer, followed by the determination of the protein concentration by the method of Bradford. The membrane suspensions were immediately used either in radioligand binding experiments or in [35S]GTPγS functional assays.
Radioligand Competition Binding Assay
Binding experiments were performed at 30 °C for 60 min in a 50 mM Tris-HCl binding buffer (pH 7.4) containing 2.5 mM of EGTA, 5 mM of MgCl2 and 0.5 mg/mL of fatty acid-free BSA in plastic tubes in a total assay volume of 1 mL that contained 0.3-0.5 mg/mL of a membrane protein. Competition binding […]
ligands. […] The incubation […]
was terminated by diluting the samples with an ice-cold wash buffer (50 mM of Tris-HCl, 2.5 mM of EGTA, 5 mM of MgCl2, 0.5% fatty acid free BSA, pH 7.4), followed by repeated washing and rapid filtration through Whatman GF/B glass fiber filters (Whatman Ltd., Maidstone, UK) pre-soaked with 0.1% polyethyleneimine (30 min before the filtration). Filtration was performed with a 24-well Brandel Cell Harvester (Gaithersburg, MD, USA). Filters were air-dried and immersed into Ultima Gold MV scintillation cocktail, and then radioactivity was measured with a TRI-CARB 2100TR liquid scintillation analyzer (Packard, Perkin Elmer, Waltham, MA, USA). […]
The results of the competition binding studies are reported as means ± S.E.M. of at least three independent experiments each performed in duplicate. In competition binding studies, the inhibitory constants (Ki) were calculated from the inflection points of the displacement curves using non-linear least-square curve fitting and the Cheng-Prusoff equation, Ki= […]/(1 + [ligand]/Kd). […]

CB1R [2] = target: T1, CB1R; test: Ligand stimulated [35S]GTPγS binding assay in rat brain membranes; format: biochemical; conditions: for CB1R functional profile (agonist / antagonist / inverse agonist): from [35S]GTPγS binding; for CB1R functional profile (agonist / antagonist / inverse agonist) / EC50: rat brain membranes; for Emax: read-out: [35S]GTPγS stimulation Emax; for EC50: ± SEM, read-out: [35S]GTPγS stimulation EC50
Protocol: as §1, §2, §3
as §4, with “assays. […]” for “assays.”
was terminated by diluting the samples with an ice-cold wash buffer (50 mM of Tris-HCl, 2.5 mM of EGTA, 5 mM of MgCl2, 0.5% fatty acid free BSA, pH 7.4), followed by repeated washing and rapid filtration through Whatman GF/B glass fiber filters (Whatman Ltd., Maidstone, UK) pre-soaked with 0.1% polyethyleneimine (30 min before the filtration). Filtration was performed with a 24-well Brandel Cell Harvester (Gaithersburg, MD, USA). Filters were air-dried and immersed into Ultima Gold MV scintillation cocktail, and then radioactivity was measured with a TRI-CARB 2100TR liquid scintillation analyzer (Packard, Perkin Elmer, Waltham, MA, USA).
Ligand Stimulated [35S]GTPγS Binding Assay
Rat brain membranes (30 µg protein/tube), prepared as described above, were incubated with 0.05 nM of […]
mM of NaCl, 3 mM of MgCl2 and 1 mM of EGTA in a 50 mM Tris-HCl buffer (pH 7.4) for 60 min at 30 °C. Basal [35S]GTPγS binding was measured in the absence of ligands and set as 100%. Nonspecific […]
binding was determined by the addition of 10 µM unlabelled GTPγS and subtracted from total binding.
Incubation, filtration and radioactivity measurements of the samples were carried out as described above. […]
All […]
data and curves were analyzed by GraphPad Prism 5.0 (San Diego, CA, USA).

mice [3] = test: Feeding test (food intake); format: in vivo, mouse; conditions: 10 mg/kg i.p., 1-h test, vs vehicle
Protocol: The tested compounds were injected i.p. (10 mg/kg), and after leaving for 30 min to allow the drug assimilation, mice were placed into individual cages with access to a predefined amount of their standard lab chow (2 g) for the 1-h test.
(§5) In Vivo Biological Assays
The international and national law and policies approved by Italian Ministry of Health were used to comply with all animal care and experimental procedures. Animal studies were advised in compliance with the ARRIVE guidelines and with the recommendations made by EU Directive 2010/63/EU for animal experiments and the Basel declaration including the 3Rs concept. CD-1 male mice (10-14 weeks of age, 25-30 g of weight) were bought from Charles River (Milan, Italy). Shortly after their arrival and for at least one week, they were kept in an animal care facility under controlled standard conditions of temperature (21 ± 1 °C), light (from 7:00 AM to 7:00 PM), and relative humidity (60 ± 10%). Access to drinking water and food was assured. All procedures were performed to decrease the number of animals used (n = 7 per group) and their distress.
The test was carried out as previously described. At 24 h before the start of a feeding test, all food was removed from the home cages of mice to be tested. The next day and at least 1 h before the feeding test began, the mice were transported to the laboratory. On test days, the animals were placed in the home cages for 30 min of drug assimilation, during which food was not available. Then compounds were intraperitoneally administered (10 mg/kg). Mice were transferred into transparent and individual plastic cages with thick white paper lining the bottom and access to a pre-measured amount of their regular lab chow (2 gr) for the 1-h test. At the end of 1 h, mice were repositioned into their home cage. The amount of food left in the trial cage, including crumbs, was measured, and the amount consumed was calculated.
Feeding trials normally happened on Tuesdays and Fridays between 12:00 and 14:00 h. […]

mice [4] = test: Hot plate test; format: in vivo, mouse; conditions: 10 μg/10 μL i.c.v., 15-120 min
From the text: as §5
The international and national law and policies approved by Italian Ministry of Health were used to comply with all animal care and experimental procedures. Animal studies were advised in compliance with the ARRIVE guidelines and with the recommendations made by EU Directive 2010/63/EU for animal experiments and the Basel declaration including the 3Rs concept. CD-1 male mice (10-14 weeks of age, 25-30 g of weight) were bought from Charles River (Milan, Italy). […]
The test was carried out as previously described. […] Mice were transferred into transparent and individual plastic cages with thick white paper lining the bottom and access to a pre-measured amount of their regular lab chow (2 gr) for the 1-h test. […] The amount of food left in the trial cage, including crumbs, was measured, and the amount consumed was calculated. […]
Thermal nociception (hot-plate test) was assessed with a commercially available apparatus consisting of a metal plate 25x25 cm (Ugo Basile, Italy) heated to a constant temperature of 55.0 ± 0.1 °C, on which a plastic cylinder (20 cm diameter, 18 cm high) was placed. The time of latency (s) was recorded from the moment the animal was placed in the cylinder on the hot plate until it licked its paws or jumped; the cut-off time was 60 s. […] The time course of latency was then determined at 15, 30, 45, 60, 90 and 120 min after compound treatment. […]

mice [5] = test: Zymosan-induced paw edema; format: in vivo, mouse; conditions: 100 μg/20 μL s.c., 15 min before zymosan
Protocol: Drugs were administered s.c. in the dorsal surface of the right hind paw at the dose of 100 μg/20 μL, 15 min before zymosan. […]
testing. […] Then, the compounds were
Compounds were prepared by freshly diluting
Then, these solutions were injected for
The total time the animal spent licking or biting its paw was calculated.
Then, paw edema was calculated as formerly
Paw volume was quantified using a
Data Analysis and Statistics
Statistically significant differences between
Data were considered statistically
The data and statistical analyses respected the recommendations on experimental design and analysis.

partially satiated rats = conditions: cited from earlier work
[6] = test system: rats with spinal cord injury (SCI); conditions: repeated treatment; cited from earlier work
mice [7] = conditions: mice colitis model; cited from earlier work

T1 sequence (P20272 whole entry): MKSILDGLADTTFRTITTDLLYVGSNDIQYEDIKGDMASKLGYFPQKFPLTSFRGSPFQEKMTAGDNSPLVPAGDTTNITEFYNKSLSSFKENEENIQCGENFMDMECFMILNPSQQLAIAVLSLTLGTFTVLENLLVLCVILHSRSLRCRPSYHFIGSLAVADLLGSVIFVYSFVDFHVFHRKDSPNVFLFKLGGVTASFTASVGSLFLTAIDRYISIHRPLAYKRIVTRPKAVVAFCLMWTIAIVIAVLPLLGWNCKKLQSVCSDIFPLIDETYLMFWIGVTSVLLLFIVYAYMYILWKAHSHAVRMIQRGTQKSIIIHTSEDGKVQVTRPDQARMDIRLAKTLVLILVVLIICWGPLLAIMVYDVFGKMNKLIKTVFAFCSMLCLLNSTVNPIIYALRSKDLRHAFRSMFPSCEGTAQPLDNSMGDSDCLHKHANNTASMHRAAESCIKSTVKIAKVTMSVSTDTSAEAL

| SMILES | Ki (CB1R [1]) | CB1R functional profile (agonist / antagonist / inverse agonist) (CB1R [2]) | Emax (CB1R [2]) | food intake (mice [3]) | EC50 (CB1R [2]) | Ki [3H]WIN55,212-2 binding (CB1R [1]; 5 nM [3H]WIN55,212-2, ± SEM, n.b. = no binding of ligands was observed) | anti-nociceptive effect in hot plate test (%MPE) (mice [4]) | anti-inflammatory effect on zymosan-induced paw volume increase (mice [5]) | food intake and motor behavior after WIN55,212-2 (partially satiated rats; higher doses (5 mg/kg), partially satiated rats) | food intake after WIN55,212-2 (partially satiated rats; i.p. 1 mg/kg and 2 mg/kg, up to 6 h after the injection) | neuropathic pain-related behavior [6] | anti-inflammatory effect in DSS-induced colitis (mice [7]) |
| --- | --- | --- | --- | --- | --- | --- | --- | --- | --- | --- | --- | --- |
| Cc1c(C(=O)N[C@H](C(N)=O)C(C)(C)C)nn(-c2ccc(Cl)cc2)c1-n1cccc1 [Compound 14, RS2691-tLeu-NH2] | 21 ± 3.8 nM | antagonist | 104 ± 1.4% | activity profile close to that of the vehicle | – | – | – | – | – | – | – | – |
| Cc1c(C(=O)N[C@H](C(N)=O)C(C)(C)C)nn(-c2ccccc2)c1-n1cccc1 [Compound 18, RS2709-tLeu-NH2] | 60 ± 6.1 nM | inverse agonist | 57 ± 13% | slight reduction in food intake | 3320 ± 242 nM | – | – | – | – | – | – | – |
| COC(=O)[C@@H](NC(=O)c1cc(-n2cccc2)n(-c2ccc(Cl)cc2)n1)C(C)C [Compound 21, RS2689-Val-OCH3] | 261 ± 27 nM | inverse agonists | 52 ± 4.8% | slight reduction in food intake | 1360 ± 139 nM | – | – | – | – | – | – | – |
| COC(=O)[C@@H](NC(=O)c1cc(-n2cccc2)n(-c2ccc(Cl)cc2)n1)C(C)(C)C [Compound 22, RS2689-tLeu-OCH3] | 44 ± 4 nM | inverse agonists | 43 ± 12% | activity profile close to that of the vehicle | 4960 ± 333 nM | – | – | – | – | – | – | – |
| COC(=O)[C@@H](NC(=O)c1nn(-c2ccc(Cl)cc2)c(-n2cccc2)c1C)C(C)(C)C [Compound 24, RS2691-tLeu-OCH3] | 17 ± 3.7 nM | inverse agonists; also recorded: strong antagonist | 99 ± 4% | slight reduction in food intake | – | – | – | – | – | – | – | – |
| COC(=O)[C@@H](NC(=O)c1cc(-n2cccc2)n(-c2ccccc2)n1)C(C)(C)C [Compound 26, RS2708-tLeu-OCH3] | 283 ± 18 nM | inverse agonists | 44 ± 5% | strong anorexic effect comparable to that of rimonabant | 1290 ± 151 nM | – | – | – | – | – | – | – |
| COC(=O)[C@@H](NC(=O)c1nn(-c2ccc(Cl)cc2Cl)c(-n2cccc2Cl)c1C)C(C)C [Compound 29, RS3516-Val-OCH3] | 30 ± 3.5 nM | inverse agonists | 44 ± 10% | strong anorexic effect comparable to that of rimonabant | 2840 ± 118 nM | – | – | – | – | – | – | – |
| CNC(=O)[C@@H](NC(=O)c1nn(-c2ccc(Cl)cc2Cl)c(-n2cccc2Cl)c1C)C(C)(C)C [Compound 40, RS3516-tLeu-NHCH3] | – | – | – | – | 237 ± 45 nM | n.b. | – | – | – | – | – | – |
| Cc1c(C(=O)c2cccc3ccccc23)c2cccc3c2n1[C@H](CN1CCOCC1)CO3 [WIN55,212-2] | – | – | 170 ± 1.7% | – | – | – | diminished immediately after administration | induced an anti-inflammatory effect | inhibit the food intake and motor behavior | hyperphagia | sustained decrease in neuropathic pain-related behavior | acting as an anti-inflammatory drug with improved pathological changes |
